# According to patent US20240209027A1, “PEPTIDE AND PEPTIDE-CONTAINING COMPOSITION” (PeptiAID Inc.,, priority 2021, published 2024):
# Read-outs that look alike come from different tables or passages of the source. Starred links: 1 amine or outer side, 2 acyl side, 3 side chain; linkers in the order of their positions; H or OH if unused. Positions of bridges follow the written chain, without caps; N, C: chain ends. Non-standard residues stand in square brackets, D forms with d. Residues, ends and D or L forms follow the SMILES beside them. Chains are numbered I, II in the order given. *: point of attachment. Ala(piperidin-4-yl) = O=C([C@H](CC1CCN([*:3])CC1)N[*:1])[*:2]; Phe(4-COOH) = N[C@@H](Cc1ccc(C(=O)O)cc1)C(=O)O; Phe(4-F) = N[C@@H](Cc1ccc(F)cc1)C(=O)O; C12 diacid = O=C(O)CCCCCCCCCCC(=O)*; X1 = C[C@@H](Cc1ccc(O)cc1)C(=O)*; NMeE = CN[C@@H](CCC(=O)O)C(=O)O; dNMeE = CN[C@H](CCC(=O)O)C(=O)O; Cha = N[C@@H](CC1CCCCC1)C(=O)O; Cit = NC(=O)NCCC[C@H](N)C(=O)O; dNMeD = CN[C@H](CC(=O)O)C(=O)O; NMeNle = CCCC[C@H](NC)C(=O)O; hCys = N[C@@H](CCS)C(=O)O; PEG2 = NCCOCCOCCC(=O)O; X2 = O=C(C[*:1])[*:2]; Aib = CC(C)(N)C(=O)O
# Key:
# [1] = system: SARS-CoV-2 mouse subculture strain QHmusX; type: in vivo, BALB/c mice
# [2] = system: SARS-CoV-2 (USA WA1/2020 strain); type: in vivo, Golden Syrian hamsters; settings: for Chronic active inflammation (anterior lobe): Mild / Chronic active inflammation (anterior lobe): Moderate / Chronic active inflammation (anterior lobe): Severe / Chronic active inflammation (posterior lobe): Mild / Chronic active inflammation (posterior lobe): Minor / Chronic active inflammation (posterior lobe): Moderate / Chronic active inflammation (posterior lobe): Severe: cases; for Gross findings of the lung: Mottled fading (number of animals) / Gross findings of the lung: No change (number of animals): 6 animals
# [3] = system: SARS-CoV2 (USA WA1/2020 strain); settings: 72 h
# [4] = molecular target: SARS-CoV-2-derived S protein, Wuhan strain (Severe acute respiratory syndrome coronavirus 2, UniProt P0DTC2); type: cell-based
# [5] = system: SARS-CoV-2 (JPN/TY/WK-521 strain); type: cell-based; parameters: key: the case where the peptide was found to have anti-SARS-CoV-2 activity when added at 50 nM was designated as “2”; the case where no activity was found upon the addition at 50 nM but the activity was found at 1 μM was designated as “1”; settings: peptide added at 50 nM or 1 μM
# [6] = system: SARS-CoV-2 Wuhan strain
# [7] = system: SARS-CoV-2 Delta strain
smiles,measurement,setting,value
CCCC[C@H]1C(=O)NC(C)(C)C(=O)N[C@@H](CC2CCCCC2)C(=O)N[C@@H](Cc2ccc(F)cc2)C(=O)N[C@H](CC(=O)O)C(=O)N[C@@H](Cc2ccc(O)cc2)C(=O)N[C@@H](Cc2ccc(O)cc2)C(=O)N[C@@H](CCCNC(N)=O)C(=O)N[C@H](CCCCN)C(=O)N[C@@H](CC2CCCCC2)C(=O)N[C@H](C(=O)N[C@H](CCC(=O)O)C(=O)O)CSCC(=O)N(C)[C@@H](CCC(=O)O)C(=O)N1C [Peptide 5555_p028] ({CH2CO}-[NMeE][NMeNle][Aib][Cha][Phe(4-F)][dD]YY[Cit][dK][Cha]C[dE]-OH; thioether N-12),lung histology (HE staining),"[1]; 30 mg administration group, day 10",mild aggregation of cells (*) was observed around blood vessels in almost all lung lobes
same,weight loss / respiratory symptoms,"[1]; mouse, in vivo",the rate of weight loss improved significantly (P<0.05) after the fourth day
same,Chronic active inflammation (anterior lobe): Mild,[2]; 1 mg/kg (n = 6),5
same,Chronic active inflammation (anterior lobe): Moderate,[2]; 1 mg/kg (n = 6),1
same,Chronic active inflammation (anterior lobe): Severe,[2]; 1 mg/kg (n = 6),0
same,Chronic active inflammation (posterior lobe): Mild,[2]; 1 mg/kg (n = 6),5
same,Chronic active inflammation (posterior lobe): Minor,[2]; 1 mg/kg (n = 6),0
same,Chronic active inflammation (posterior lobe): Moderate,[2]; 1 mg/kg (n = 6),1
same,Chronic active inflammation (posterior lobe): Severe,[2]; 1 mg/kg (n = 6),0
same,"body weight, Mean","[2]; 1 mg/kg i.p., Day 0",126.75
same,"body weight, Mean","[2]; 1 mg/kg i.p., Day 1",124.03
same,"body weight, Mean","[2]; 1 mg/kg i.p., Day 2",122.3
same,"body weight, Mean","[2]; 1 mg/kg i.p., Day 3",120.17
same,"body weight, Mean","[2]; 1 mg/kg i.p., Day 4",120.33
same,"body weight, Mean","[2]; 1 mg/kg i.p., Day 5",120.75
same,"body weight, Mean","[2]; 1 mg/kg i.p., Day −6",118.63
same,Gross findings of the lung: Mottled fading (number of animals),[2]; 1 mg/kg,6 number of animals
same,Gross findings of the lung: No change (number of animals),[2]; 1 mg/kg,0 number of animals
same,"SARS-CoV-2 genome copy number in lung (RT-qPCR), Log10 of Geometric mean (copy number/gram)","[2]; 1 mg/kg, Day 5",8.15 copy number/gram
same,SARS-CoV-2 genome copy number in lung vs solvent control,[2]; 5 mg/kg,statistically significant decrease
same,Chronic active inflammation (anterior lobe): Mild,[2]; 5 mg/kg (n = 6),1
same,Chronic active inflammation (anterior lobe): Moderate,[2]; 5 mg/kg (n = 6),5
same,Chronic active inflammation (anterior lobe): Severe,[2]; 5 mg/kg (n = 6),0
same,Chronic active inflammation (posterior lobe): Mild,[2]; 5 mg/kg (n = 6),3
same,Chronic active inflammation (posterior lobe): Minor,[2]; 5 mg/kg (n = 6),2
same,Chronic active inflammation (posterior lobe): Moderate,[2]; 5 mg/kg (n = 6),1
same,Chronic active inflammation (posterior lobe): Severe,[2]; 5 mg/kg (n = 6),0
same,Chronic active inflammation (posterior lobe): Minor,"[2]; 5 mg/kg (n = 6), listed as 5555_028",Minor lung inflammation was observed in the posterior lobe in two cases
same,"body weight, Mean","[2]; 5 mg/kg i.p., Day 0",126.52
same,"body weight, Mean","[2]; 5 mg/kg i.p., Day 1",122.87
same,"body weight, Mean","[2]; 5 mg/kg i.p., Day 2",120.87
same,"body weight, Mean","[2]; 5 mg/kg i.p., Day 3",120.42
same,"body weight, Mean","[2]; 5 mg/kg i.p., Day 4",118.52
same,"body weight, Mean","[2]; 5 mg/kg i.p., Day 5",119.68
same,"body weight, Mean","[2]; 5 mg/kg i.p., Day −6",118.67
same,Gross findings of the lung: Mottled fading (number of animals),[2]; 5 mg/kg,6 number of animals
same,Gross findings of the lung: No change (number of animals),[2]; 5 mg/kg,0 number of animals
same,"SARS-CoV-2 genome copy number in lung (RT-qPCR), Log10 of Geometric mean (copy number/gram)","[2]; 5 mg/kg, Day 5",7.72 copy number/gram
same,SARS-CoV-2 genome copy number in lung vs solvent control,[2]; 25 mg/kg,decreasing trend
same,Chronic active inflammation (anterior lobe): Mild,[2]; 25 mg/kg (n = 6),2
same,Chronic active inflammation (anterior lobe): Moderate,[2]; 25 mg/kg (n = 6),4
same,Chronic active inflammation (anterior lobe): Severe,[2]; 25 mg/kg (n = 6),0
same,Chronic active inflammation (posterior lobe): Mild,[2]; 25 mg/kg (n = 6),6
same,Chronic active inflammation (posterior lobe): Minor,[2]; 25 mg/kg (n = 6),0
same,Chronic active inflammation (posterior lobe): Moderate,[2]; 25 mg/kg (n = 6),0
same,Chronic active inflammation (posterior lobe): Severe,[2]; 25 mg/kg (n = 6),0
same,"body weight, Mean","[2]; 25 mg/kg i.p., Day 0",129.63
same,"body weight, Mean","[2]; 25 mg/kg i.p., Day 1",126.85
same,"body weight, Mean","[2]; 25 mg/kg i.p., Day 2",126.68
same,"body weight, Mean","[2]; 25 mg/kg i.p., Day 3",126.22
same,"body weight, Mean","[2]; 25 mg/kg i.p., Day 4",124.45
same,"body weight, Mean","[2]; 25 mg/kg i.p., Day 5",121.62
same,"body weight, Mean","[2]; 25 mg/kg i.p., Day −6",118.95
same,Gross findings of the lung: Mottled fading (number of animals),[2]; 25 mg/kg,4 number of animals
same,Gross findings of the lung: No change (number of animals),[2]; 25 mg/kg,2 number of animals
same,Gross findings of the lung: No change (number of animals),"[2]; 25 mg/kg, listed as 5555_028",no lung fading was observed in two cases
same,"SARS-CoV-2 genome copy number in lung (RT-qPCR), Log10 of Geometric mean (copy number/gram)","[2]; 25 mg/kg, Day 5",8.76 copy number/gram
same,severity of lung inflammation vs solvent control,"[2]; 1, 5, or 25 mg/kg i.p.",The severity of lung inflammation was reduced
same,weight loss vs solvent control,"[2]; hamster, in vivo",the weight loss was suppressed to the same degree at any of the doses
same,IC50,[3],3.5 nM
same,Imax: % (at 500 nM),[4],91%
same,Anti-SARS-CoV-2 activity,[5],2
CCCC[C@H]1C(=O)NC(C)(C)C(=O)N[C@@H](CC2CCCCC2)C(=O)N[C@@H](Cc2ccc(F)cc2)C(=O)N(C)[C@H](CCC(=O)O)C(=O)N[C@@H](Cc2ccc(O)cc2)C(=O)N[C@@H](Cc2ccc(O)cc2)C(=O)N[C@@H](Cc2ccc(C(=O)O)cc2)C(=O)N[C@@H](CC2CCNCC2)C(=O)N[C@@H](CC2CCCCC2)C(=O)N[C@H](C(=O)N[C@H](CCC(=O)O)C(N)=O)CSCC(=O)N(C)[C@@H](CCC(=O)O)C(=O)N1C [Peptide 5555_p175] ({CH2CO}-[NMeE][NMeNle][Aib][Cha][Phe(4-F)][dNMeE]YY[Phe(4-COOH)][Ala(piperidin-4-yl)][Cha]C[dE]-NH2; thioether N-12),IC50,[6],34.5 nM
CCCC[C@H]1C(=O)NC(C)(C)C(=O)N[C@@H](CC2CCCCC2)C(=O)N[C@@H](Cc2ccc(F)cc2)C(=O)N(C)[C@H](CC(=O)O)C(=O)N[C@@H](Cc2ccc(O)cc2)C(=O)N[C@@H](Cc2ccc(O)cc2)C(=O)N[C@@H](Cc2ccc(C(=O)O)cc2)C(=O)N[C@@H](CC2CCNCC2)C(=O)N[C@@H](CC2CCCCC2)C(=O)N[C@H](C(=O)N[C@H](CCC(=O)O)C(N)=O)CSCC(=O)N(C)[C@@H](CCC(=O)O)C(=O)N1C [Peptide 5555_p176] ({CH2CO}-[NMeE][NMeNle][Aib][Cha][Phe(4-F)][dNMeD]YY[Phe(4-COOH)][Ala(piperidin-4-yl)][Cha]C[dE]-NH2; thioether N-12),IC50,[6],13.6 nM
same,IC50,[7],13.7 nM
CCCC[C@@H](C(=O)NC(C)(C)C(=O)N[C@@H](CC1CCCCC1)C(=O)N[C@@H](Cc1ccc(F)cc1)C(=O)N[C@H](CC(=O)O)C(N)=O)N(C)C(=O)[C@H](CCC(=O)O)N(C)C(=O)CSCC[C@H](NC(=O)[C@H](CC1CCCCC1)NC(=O)[C@@H](CCCCN)NC(=O)[C@H](CCCNC(N)=O)NC(=O)[C@H](Cc1ccc(O)cc1)NC(=O)[C@@H](C)Cc1ccc(O)cc1)C(=O)N[C@H](CCC(=O)O)C(=O)N[C@H](CCCCNC(=O)CCCCCCCCCCC(=O)O)C(N)=O [Peptide 5555_p221] (I: X1-Y[Cit][dK][Cha][hCys][dE][dK](C12 diacid)-NH2 / II: [NMeE][NMeNle][Aib][Cha][Phe(4-F)][dD]-NH2; linker I:5-II:N via X2),IC50,[6],17.7 nM
same,IC50,[7],18.6 nM
CCCC[C@H]1C(=O)NC(C)(C)C(=O)N[C@@H](CC2CCCCC2)C(=O)N[C@@H](Cc2ccc(F)cc2)C(=O)N[C@H](CC(=O)O)C(=O)N[C@@H](Cc2ccc(O)cc2)C(=O)N[C@@H](Cc2ccc(O)cc2)C(=O)N[C@@H](CCCNC(N)=O)C(=O)N[C@H](CCCCN)C(=O)N[C@@H](CC2CCCCC2)C(=O)N[C@H](C(=O)N[C@H](CCC(=O)O)C(=O)NCCOCCOCCC(=O)N[C@H](CCCCNC(=O)CCCCCCCCCCC(=O)O)C(N)=O)CSCC(=O)N(C)[C@@H](CCC(=O)O)C(=O)N1C [Peptide 5555_p227] ({CH2CO}-[NMeE][NMeNle][Aib][Cha][Phe(4-F)][dD]YY[Cit][dK][Cha]C[dE][PEG2][dK](C12 diacid)-NH2; thioether N-12),IC50,[6],11.5 nM
same,IC50,[7],8 nM
